How the values were obtained:
[1] = system: blood sugar level of fasting mice (alloxanized); assay: blood sugar level of fasting alloxanized mice (Table 3); assay type: in vivo; conditions: for Blood Sugar Level, mean S.E., 1 h: control 327 ± 46; for Blood Sugar Level, mean S.E., 2 h: control 360 ± 50; for Blood Sugar Level, mean S.E., 3 h: control 355 ± 48.5; for Blood Sugar Level, mean S.E., 4 h: control 378 ± 51.5; for Blood Sugar Level, mean S.E., 5 h: control 377 ± 57.5
Procedure: It is possible, therefore, that saudin operates by a different mechanism than the hypoglycemic agents heretofore employed, and may for that reason find unique application in medicine. The results of comparative tests are given in the following Table 3, using mice injected intravenously with 50 mg/kg of alloxan 3 days before the tests.

animals = assay: hypoglycemic effect in animals on injection (general statement); assay type: in vivo; conditions: read-out: dose producing a significant hypoglycemic effect, by injection, "above about"
Procedure: For the control of hyperglycemia, a dose between about 25 and about 110 mg/kg is effective, when administered at intervals of about 2 to about 12 hours in a tissue-compatible liquid. Normal saline solution is a suitable solvent diluent, or alternatively aqueous carboxymethylcellulose.

in vivo = conditions: mouse, ip
Source text: When suspended in carboxymethylcellulose (1.5%) and injected i.p. into mice according to the method of Miller and Tainter, Proc. Soc.

[2] = system: plasma glucose level of alloxanized and non-alloxanized rats; assay: plasma glucose level of alloxanized and non-alloxanized rats, fasted or non-fasted (Table 2); assay type: in vivo, rats (male albino)
Procedure: (§1) Male albino rats weighing from 100-150 gm were divided into groups each comprised from 7-8 rats. […] Non-fasted and fasted rats were either non-alloxanized or injected I.V. with alloxan at a dose of 40 mg/kg two days before administration of saudin. Saudin was injected I.P. in the experiment groups in a suspension form containing 0.5% carboxymethylcellulose (CMC). Control groups received I.P. injection of 0.5% CMD at a dose not exceeding 1 ml/100 gm (Maximum volume used to suspend saudin). Blood samples were taken and the plasma glucose level was estimated as indicated in the results. The method used for glucose estimation was similar to that used by Free et al., Advances in Clinical Chemistry, E. H. Sobotaka and C. P. Steward (eds.), Academic Press, New York, 6, p. 67 (1973).
Effect of saudin on the plasma glucose level of alloxanized and
non-alloxanized rats either fasted
or non-fasted. Blood samples were taken 2 hours after saudin injection in
tubes containing heparin.
Plasma was separated for glucose estimation.

[3] = system: plasma glucose level of non-fasted rats; assay: plasma glucose level of non-fasted rats after I.P. injection (Table 1); assay type: in vivo, rats (male albino); conditions: 40 mg/kg I.P.
Procedure: as §1
non-fasted rats in response to I.P. injection of
40 mg/kg. Blood samples were taken at 1 h intervals
in heparinized tubes and plasma was separated for […]

[4] = fasting mice, 50 mg/kg alloxan i.v. 3 days before, saudin 40 mg/kg, tolbutamide 150 mg/kg

SMILES | Blood Sugar Level, mean S.E., 1 h [1, 4] | Blood Sugar Level, mean S.E., 2 h [1, 4] | Blood Sugar Level, mean S.E., 3 h [1, 4] | Blood Sugar Level, mean S.E., 4 h [1, 4] | Blood Sugar Level, mean S.E., 5 h [1, 4] | minimal effective dose (animals) | hypoglycemic effect in alloxanized mice (in words) ([1]; alloxanized mice, unlike tolbutamide) | Blood Sugar Level, mean S.E., 0 h ([1]; fasting mice, 50 mg/kg alloxan i.v. 3 days before, saudin 40 mg/kg, tolbutamide 150 mg/kg, 0 h, control 230 ± 40) | LD50 (in vivo) | Plasma glucose level, S.E., alloxanized fasted, Exp. ([2]; alloxanized (40 mg/kg alloxan I.V. 2 days before) fasted rats, 2 hours after saudin injection, control 116.66 ± 6.64, saudin S.E. 4.45) | Plasma glucose level, S.E., alloxanized non-fasted, Exp. ([2]; alloxanized (40 mg/kg alloxan I.V. 2 days before) non-fasted rats, 2 hours after saudin injection, control 141.2 ± 3.43, saudin S.E. 10.78) | effect on plasma glucose levels (in words) ([2]; fasted alloxanized and non-alloxanized rats, fed alloxanized rats) | Plasma glucose level, S.E., non-alloxanized fasted, Exp. ([2]; non-alloxanized fasted rats, 2 hours after saudin injection, control 81.14 ± 4.31, saudin S.E. 3.05) | Plasma glucose level, S.E., non-alloxanized non-fasted, Exp. ([2]; non-alloxanized non-fasted rats, 2 hours after saudin injection, control 132.14 ± 3.82, saudin S.E. 2.22*, significant vs control at P < 0.01) | hypoglycemic effect (in words) ([3]; non-alloxanized fed rats, two hours after injection) | Plasma glucose level, S.E., 0 h ([3]; non-fasted, non-alloxanized rats, 0 h, control 113.63 ± 7.50, saudin S.E. 3.05) | Plasma glucose level, S.E., 1 h ([3]; non-fasted, non-alloxanized rats, 1 h, control 115.25 ± 5.78, saudin S.E. 4.45) | Plasma glucose level, S.E., 2 h ([3]; non-fasted, non-alloxanized rats, 2 h, control 126.75 ± 4.62, saudin S.E. 2.31*, significant vs control at P < 0.01) | Plasma glucose level, S.E., 3 h ([3]; non-fasted, non-alloxanized rats, 3 h, control 105.00 ± 3.23, saudin S.E. 3.78) | Plasma glucose level, S.E., 4 h ([3]; non-fasted, non-alloxanized rats, 4 h, control 104.73 ± 4.11, saudin S.E. 4.81)
CCCCNC(=O)NS(=O)(=O)c1ccc(C)cc1 [tolbutamide, reference compound] | 185 ± 36 mg % | 212 ± 40.4 mg % | 235 ± 40.8 mg % | 262 ± 54 mg % | 347 ± 64 mg % |  |  |  |  |  |  |  |  |  |  |  |  |  |  | 
C[C@H]1C(=O)O[C@]23CC[C@]4(C)C(=O)OC[C@@]45O[C@](c4ccoc4)(C[C@@H]1[C@@]25C)O3 [saudin, (-)-(1R,4R,5S,7R,9S,13S,16R) -7-(3-furanyl)-4,13,16-trimethyl-2,8,11,17-tetraoxapentacyclo [7.6.1.1^1,7.0^5,16.0^9,13]heptadeca-3,12-dione] | 288 ± 48.5 mg % | 346 ± 55.4 mg % | 342 ± 55.4 mg % | 355 ± 54.3 mg % | 443 ± 62.7 mg % | > 10 mg/kg | does not produce a hypoglycemic effect | 222 ± 25 mg % | 500 ± 15.8 mg/kg | 103.5 mg/dL | 142.8 mg/dL | did not alter the plasma glucose levels | 79.86 mg/dL | 111.85 mg/dL | significant hypoglycemic effect | 109.75 mg/dL | 127.86 mg/dL | 107.00 mg/dL | 97.00 mg/dL | 98.00 mg/dL

Reference: patent US4740521A, “Saudin, a novel hypoglycemic agent” (Purdue Research Foundation, priority 1986, dated 1988)
